# Assay results taken from patent EP4692071A1, “PHOTOCHROMIC COMPOUND, NAPHTHOL DERIVATIVE, CURABLE COMPOSITION, OPTICAL ARTICLE, LENS, AND EYEGLASS” (TOKUYAMA CORPORATION, priority 2023, dated 2024).
# How the values were obtained:
# Assay type in all cases: physicochemical
# [1] = Maximum absorption wavelength (λmax) after color development, spectrophotometer MCPD3000; conditions: for Maximum absorption wavelength: after color development
# Experimental: (§1) • [1] Maximum Absorption Wavelength (λmax): The maximum absorption wavelength after color development, measured using a spectrophotometer (instantaneous multichannel photodetector MCPD3000) manufactured by Otsuka Electronics Co., Ltd. was used as an indicator for the color tone during the color development. • [2] 23°C Color Optical Density (A23): A difference between an absorbancy measured after light irradiation at 23°C for 240 seconds {ε(240)} and an absorbancy without light irradiation ε(0) at the maximum absorption wavelength was used as an indicator for the color optical density. […] 35°C Color Optical Density (A35): A difference between an absorbancy measured after light irradiation at 35°C for 240 seconds {ε(240)} and an absorbancy without light irradiation ε(0) at the first and second absorption wavelengths was used as an indicator for the color optical density. […] 23°C color fading half-life [τ1/2 (sec.)]: A time required for the absorbancy of the sample at the maximum absorption wavelength to decrease to 1/2 of {ε(240)-ε(0)} when the light irradiation is terminated after the light irradiation at 23°C for 240 seconds, was used as an indicator for the color fading speed. The shorter this time, the higher the color fading speed. • [6] Residual rate (A90/A0×100): The obtained photochromic plastic lens was subjected to accelerated deterioration using a xenon weather meter X25 manufactured by Suga Test Instruments Co., Ltd. for 90 hours. Subsequently, the color optical density was evaluated before and after the test, then a color optical density before the test (A0) and a color optical density after the test (A90) were measured, and a ratio (A90/A0) was defined as a residual rate. The residual rate was used as an indicator for a color developing durability. The higher the residual rate, the higher the color developing durability.
# [2] = 23°C color optical density (A23): absorbancy difference ε(240)-ε(0) after 240 s light irradiation at 23°C; conditions: 240 s irradiation; for 23°C color optical density (-): comparative compounds
# Experimental: as §1
# [3] = 35°C color optical density (A35): absorbancy difference ε(240)-ε(0) after 240 s light irradiation at 35°C; conditions: 240 s irradiation; for 35°C color optical density (-): comparative compounds
# Experimental: as §1
# [4] = High-temperature color development rate (A35/A23×100), temperature dependency
# Experimental: as §1
# [5] = Residual rate (A90/A0×100) after 90 h accelerated deterioration in xenon weather meter X25, color developing durability; conditions: for Residual rate (%): xenon weather meter 90 hours; for Residual rate: after 90 h accelerated deterioration
# Experimental: as §1
# [6] = binder sheet (binder method), urethaneurea resin photochromic layer between polycarbonate sheets, 0.25 mmol per 100 parts by mass resin
# [7] = photochromic laminate by coating method, 40 µm photochromic layer on thiourethane lens, 0.25 mmol compound per 100 g monomers
# [8] = photochromic laminate by coating method, at the maximum absorption wavelength
# [9] = photochromic laminate by coating method
# [10] = photochromic cured product by kneading method, 1 mm thick thiourethane, 0.106 mmol per 100 g monomers
# [11] = cured product by kneading method, 1 mm
# [12] = binder sheet (binder method), absorption peak at 474 nm
# [13] = binder sheet (binder method), absorption peak at 566 nm
# [14] = photochromic cured product, thickness 1 mm (kneading method), absorption band at 476 nm
# [15] = photochromic cured product, thickness 1 mm (kneading method), absorption band at 573 nm
# [16] = photochromic laminate prepared by coating method, absorption band at 474 nm
# [17] = photochromic laminate prepared by coating method, absorption band at 567 nm
# [18] = binder sheet (binder method), at 474 nm absorption maximum
# [19] = binder sheet (binder method), at 566 nm absorption maximum
# [20] = photochromic laminate by coating method, absorption band at 474 nm
# [21] = photochromic laminate by coating method, absorption band at 567 nm
structure (smiles),measurement,setting,value
CCCCOc1ccc(C2(c3ccc(OC)cc3)C=Cc3c4c(c5cc(N(C)c6ccccc6)c(OC)cc5c3O2)-c2ccc(-c3ccc(C(C)(C)C)cc3)cc2C4(CC)CC)cc1 (stereo not drawn) [Example 45 Formula (94)],Maximum absorption wavelength (nm),[1]; [6],506 nm
same,Maximum absorption wavelength (nm),[1]; [7],506 nm
same,A23 (-),[2]; binder sheet (binder method),1.24 -
same,A23 (-),[2]; [8],1.21 -
same,A35 (-),[3]; binder sheet (binder method),0.88 -
same,A35 (-),[3]; [9],0.86 -
same,A35/A23 *100 (%),[4]; binder sheet (binder method),71%
same,A35/A23 *100 (%),[4]; [9],71%
same,Residual rate (%),[5]; binder sheet (binder method),92%
same,Residual rate (%),[5]; [9],80%
CCCOc1ccc(C2(c3ccc(OCCC)cc3)C=Cc3c4c(c5cc(N(C)c6ccc(C)cc6)c(OC)cc5c3O2)-c2ccccc2C4(CCCCOC)CCCCOC)cc1 [Example 20 Formula (85)],Maximum absorption wavelength (nm),[1]; [6],503 nm
same,Maximum absorption wavelength (nm),[1]; [10],507 nm
same,Maximum absorption wavelength (nm),[1]; [7],503 nm
same,A23 (-),[2]; binder sheet (binder method),1.23 -
same,A23 (-),[2]; [11],1.24 -
same,A23 (-),[2]; [8],1.22 -
same,A35 (-),[3]; binder sheet (binder method),0.86 -
same,A35 (-),[3]; [11],0.87 -
same,A35 (-),[3]; [9],0.85 -
same,A35/A23 *100 (%),[4]; binder sheet (binder method),70%
same,A35/A23 *100 (%),[4]; [11],70%
same,A35/A23 *100 (%),[4]; [9],70%
same,Residual rate (%),[5]; binder sheet (binder method),93%
same,Residual rate (%),[5]; [11],85%
same,Residual rate (%),[5]; [9],81%
CCCC1(CCC)c2ccccc2-c2c1c1c(c3cc(OC)c(N4CCOc5ccccc54)cc23)OC(c2ccc(OC)cc2)(c2ccc(OC)cc2)C=C1 [Example 10 Formula (59)],Maximum absorption wavelength (nm),[1]; [6],510 nm
same,Maximum absorption wavelength (nm),[1]; [10],514 nm
same,Maximum absorption wavelength (nm),[1]; [7],510 nm
same,A23 (-),[2]; binder sheet (binder method),1.32 -
same,A23 (-),[2]; [11],1.34 -
same,A23 (-),[2]; [8],1.3 -
same,A35 (-),[3]; binder sheet (binder method),0.87 -
same,A35 (-),[3]; [11],0.91 -
same,A35 (-),[3]; [9],0.86 -
same,A35/A23 *100 (%),[4]; binder sheet (binder method),66%
same,A35/A23 *100 (%),[4]; [11],68%
same,A35/A23 *100 (%),[4]; [9],66%
same,Residual rate (%),[5]; binder sheet (binder method),94%
same,Residual rate (%),[5]; [11],89%
same,Residual rate (%),[5]; [9],82%
COc1ccc(C2(c3ccc(N4CCOCC4)cc3)C=Cc3c4c(c5cc(N6CCCc7ccccc76)c(OC)cc5c3O2)-c2ccc(C)cc2C4(CCCC(F)(F)F)CCCC(F)(F)F)cc1 (stereo not drawn) [Example 8 Formula (54)],Maximum absorption wavelength (nm),[1]; [10],549 nm
same,Maximum absorption wavelength (nm),[1]; [7],545 nm
same,A23 (-),[2]; [11],1.20 -
same,A23 (-),[2]; [8],1.18 -
same,A35 (-),[3]; [11],0.79 -
same,A35 (-),[3]; [9],0.75 -
same,A35/A23 *100 (%),[4]; [11],66%
same,A35/A23 *100 (%),[4]; [9],64%
same,Residual rate (%),[5]; [11],80%
same,Residual rate (%),[5]; [9],75%
"COc1ccc(C2(c3ccc(OC)cc3)C=Cc3c4c(c5cc(N6CCOCC6)c(OC)cc5c3O2)-c2ccccc2C4(C)C)cc1 [Formula (A), reference compound]",Maximum absorption wavelength (nm),"[1]; binder sheet (binder method), urethaneurea resin photochromic layer between polycarbonate sheets, 0.25 mmol per 100 parts by mass resin, at 474 nm absorption maximum",474 nm
same,Maximum absorption wavelength (nm),"[1]; binder sheet (binder method), urethaneurea resin photochromic layer between polycarbonate sheets, 0.25 mmol per 100 parts by mass resin, at 566 nm absorption maximum",566 nm
same,Maximum absorption wavelength,[1]; [12],474 nm
same,Maximum absorption wavelength,[1]; [13],566 nm
same,Maximum absorption wavelength (nm),"[1]; photochromic cured product by kneading method, 1 mm thick thiourethane, 0.106 mmol per 100 g monomers, absorption peak at 476 nm",476 nm
same,Maximum absorption wavelength (nm),"[1]; photochromic cured product by kneading method, 1 mm thick thiourethane, 0.106 mmol per 100 g monomers, absorption peak at 573 nm",573 nm
same,Maximum absorption wavelength,[1]; [14],476 nm
same,Maximum absorption wavelength,[1]; [15],573 nm
same,Maximum absorption wavelength (nm),"[1]; photochromic laminate by coating method, 40 µm photochromic layer on thiourethane lens, 0.25 mmol compound per 100 g monomers, absorption band at 474 nm",474 nm
same,Maximum absorption wavelength (nm),"[1]; photochromic laminate by coating method, 40 µm photochromic layer on thiourethane lens, 0.25 mmol compound per 100 g monomers, absorption band at 567 nm",567 nm
same,Maximum absorption wavelength,[1]; [16],474 nm
same,Maximum absorption wavelength,[1]; [17],567 nm
same,A23 (-),[2]; [18],1.69 -
same,A23 (-),[2]; [19],0.85 -
same,23°C color optical density (-),[2]; [20],1.65 -
same,23°C color optical density (-),[2]; [21],0.83 -
same,35°C color optical density (-),[3]; [20],1.14 -
same,35°C color optical density (-),[3]; [21],0.57 -
same,A35/A23 *100,[4]; [12],69%
same,A35/A23 *100,[4]; [13],68%
same,A35/A23 *100 (%),[4]; [18],69%
same,A35/A23 *100 (%),[4]; [19],68%
same,A35/A23 *100 (%),[4]; [11],70%
same,A35/A23 *100,"[4]; photochromic cured product, thickness 1 mm (kneading method)",70%
same,Temperature change rate (%),"[4]; photochromic laminate by coating method, comparative compounds, corresponds to A35/A23×100",69%
same,A35/A23 *100,[4]; photochromic laminate prepared by coating method,69%
same,Residual rate,[5]; [12],70%
same,Residual rate,[5]; [13],76%
same,Residual rate (%),[5]; [18],70%
same,Residual rate (%),[5]; [19],76%
same,Residual rate (%),"[5]; cured product by kneading method, 1 mm, absorption peak at 476 nm",60%
same,Residual rate (%),"[5]; cured product by kneading method, 1 mm, absorption peak at 573 nm",65%
same,Residual rate,[5]; [14],60%
same,Residual rate,[5]; [15],65%
same,Residual rate (%),[5]; [20],53%
same,Residual rate (%),[5]; [21],57%
same,Residual rate,[5]; [16],53%
same,Residual rate,[5]; [17],57%
COc1ccc(C2(c3ccc(OC)cc3)C=Cc3c4c(c5cc(N(c6ccccc6)c6ccccc6)c(OC)cc5c3O2)-c2ccccc2C4(C)C)cc1 [Example 2 Formula (30)],Maximum absorption wavelength (nm),[1]; [6],510 nm
same,Maximum absorption wavelength (nm),[1]; [10],514 nm
same,Maximum absorption wavelength (nm),[1]; [7],510 nm
same,A23 (-),[2]; binder sheet (binder method),1.52 -
same,A23 (-),[2]; [11],1.51 -
same,A23 (-),[2]; [8],1.49 -
same,A35 (-),[3]; binder sheet (binder method),1.07 -
same,A35 (-),[3]; [11],1.07 -
same,A35 (-),[3]; [9],1.05 -
same,A35/A23 *100 (%),[4]; binder sheet (binder method),70%
same,A35/A23 *100 (%),[4]; [11],71%
same,A35/A23 *100 (%),[4]; [9],70%
same,Residual rate (%),[5]; binder sheet (binder method),94%
same,Residual rate (%),[5]; [11],88%
same,Residual rate (%),[5]; [9],82%
CCCCC1(CCCC)c2cc([Si](C)(C)C(C)(C)C)ccc2-c2c1c1c(c3cc(OC)c(N(CC)c4ccccc4)cc23)OC(c2ccc(OC)cc2)(c2ccc(OCCC)cc2)C=C1 (stereo not drawn) [Example 46 Formula (99)],Maximum absorption wavelength (nm),[1]; [7],504 nm
same,A23 (-),[2]; [8],1.29 -
same,A35 (-),[3]; [9],0.90 -
same,A35/A23 *100 (%),[4]; [9],70%
same,Residual rate (%),[5]; [9],78%
COc1ccc(C2(c3ccc(OC)cc3)C=Cc3c4c(c5cc(N(C)c6ccccc6)c(OC)cc5c3O2)-c2ccccc2C4(C)C)cc1 [Example 1 Formula (28)],Maximum absorption wavelength (nm),[1]; [6],501 nm
same,Maximum absorption wavelength (nm),[1]; [10],505 nm
same,Maximum absorption wavelength (nm),[1]; [7],501 nm
same,A23 (-),[2]; binder sheet (binder method),1.17 -
same,A23 (-),[2]; [11],1.19 -
same,A23 (-),[2]; [8],1.15 -
same,A35 (-),[3]; binder sheet (binder method),0.80 -
same,A35 (-),[3]; [11],0.83 -
same,A35 (-),[3]; [9],0.79 -
same,A35/A23 *100 (%),[4]; binder sheet (binder method),69%
same,A35/A23 *100 (%),[4]; [11],70%
same,A35/A23 *100 (%),[4]; [9],69%
same,Residual rate (%),[5]; binder sheet (binder method),95%
same,Residual rate (%),[5]; [11],89%
same,Residual rate (%),[5]; [9],83%
